The data set is described as follows: gradient 5% acetonitrile 3 min, to 50% in 2 min, to 85% in 15 min, held 3 min, 100 µL/min. The settings on record: column: Zorbax Extend-C18 2.1 x 50 mm; eluents: water / acetonitrile, 0.1% formic acid. The procedure, abridged: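 Standards, all pure, were combined into mixtures of ~100 molecules and run at 100 μL/min on a Zorbax Extend-C18 column (2.1 × 50 mm, 1.8 μm) with water and acetonitrile, each containing 0.1% formic acid. A coupled quadrupole time-of-flight mass spectrometer operated in positive and negative ionization mode. Retention time values come from computationally picked adduct peaks, each inspected manually.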
As to `CCN1CCN(Cc2ccc(NC(=O)c3ccc(C)c(NC(=O)c4cncc(-c5cccs5)c4)c3)cc2C(F)(F)F)CC1`, the RP-LC retention time stood at 844 s.
The figure for `COc1ccccc1CN1CCc2nc(N3CCN(c4ccccc4OC)CC3)ncc2C1` is 687 s; for `O=C(Nc1ccsc1-c1nnc(C2CC2)o1)c1ccsc1` it is 1170 s.
`O=C(Cc1ccccc1F)NC1CCN(c2cc(-c3cccs3)[nH]n2)C1` (centres undefined) displayed an RP-LC retention time of 705 s.
In the case of `COC(=O)C1=CN(c2ccc(OC)cc2)c2cc(F)ccc2S1(=O)=O` it was 844 s.
Regarding `O=C(c1ccc(Cl)cc1Cl)N1CCN(c2cc(-c3cccs3)[nH]n2)CC1`, the RP-LC retention time was found to be 888 s.
In the case of `CCCN(CC1CCOC1)C(=O)c1ccc(F)c(F)c1` (centres undefined) it was 787 s; in that of `COc1cccc(NC(=O)N2CCN(c3cc(C)nc(Nc4ccc(C)cc4)n3)CC2)c1`, 687 s.
In the case of `COc1ccc(NC(=O)Cn2c(=O)n(-c3ccc(F)cc3)c(=O)c3c2cc(C)n3C)cc1` it was 812 s; in that of `O=C(c1ccccn1)N1CCC2(CC1)NC(=O)N(Cc1ccccc1Cl)C2=O`, 716 s.
In the case of `Cc1cc2[nH]c(C(=O)Nc3ccc(F)c(F)c3F)c(CN3CCOCC3)c2s1` it was 743 s.
As for `O=C(CN1C(=O)NC2(CCCCC2)C1=O)NCc1ccccc1F`, the RP-LC retention time was found to be 733 s.
In the case of `COc1ccc(Cl)cc1NC(=O)NCC(c1cccnc1)c1c[nH]c2ccccc12` (centres undefined) it was 728 s.
The figure for `CC(C)CCN1N=C(C(=O)N2CCOCC2)S(=O)(=O)c2ccc(Cl)cc21` is 957 s.
For `Cc1cccn2cc(C(=O)NCc3ccc(N(C)C)cc3)nc12`, the RP-LC retention time turned out to be 565 s.
`Cc1ccc(-c2ccc(-n3nc(C)c(S(=O)(=O)N4CCCC4)c3C)nn2)cc1` came in with an RP-LC retention time of 989 s.
The figure for `COc1ccccc1N1CCN(c2ncc3c(n2)CCN(Cc2cccc(C)c2)C3)CC1` is 705 s; for `COc1ccccc1OCc1nc(-c2ccc3ncn(C)c3c2)no1` it is 693 s.
As to `CCc1ccc(-c2cc3c(=O)n(Cc4noc(CN5CCCC5)n4)ccn3n2)cc1`, the RP-LC retention time came out at 694 s.
In the case of `CCOC(=O)Cc1ccc(NC(=O)NCc2c(C)nn(CC)c2C)cc1` it was 649 s.
On to `Oc1ccc(-c2ccc(F)cc2)cc1CNC1CCCCC1`, for which the RP-LC retention time was found to be 712 s.
The figure for `COc1ccc(-c2nc3cnccn3c2NCc2ccccc2)cc1` is 719 s.
The figure for `CC(C)n1c(=O)oc2cc(-c3noc(-c4cc(F)ccc4F)n3)ccc21` is 1130 s; for `O=C(CCNc1cnc2cnccn12)NCc1ccccc1C(F)(F)F` it is 585 s.
In the case of `Cc1ccccc1NS(=O)(=O)c1cc2n(c1)CCN(C(C)C)C2=O` it was 758 s.
The compound `CCn1ccc(NC(=O)Nc2cc(C)cc(C)c2)n1` displayed an RP-LC retention time of 853 s.
As for `O=C(N1CCC2(CC1)CC(CCOc1ccncc1)CCO2)C1(c2ccccc2)CC1` (centres undefined), the RP-LC retention time came out at 664 s.
`CCCS(=O)(=O)N1CCCC(Cn2c(C3CC3)nc3cccnc32)C1` (centres undefined) had an RP-LC retention time of 658 s.
The figure for `COc1ccc(CN2CC3(CCN(S(=O)(=O)c4cc(C)ccc4C)CC3)C2=O)cc1` is 932 s; for `COc1ccc(CCNC(=O)CSC2CCc3ccccc3NC2=O)cc1OC` (centres undefined) it is 708 s.
The figure for `CCCCOc1ccc(C(=O)N2CCN(c3cc(C)nc(N4CCOCC4)n3)CC2)cc1` is 720 s.
In the case of `O=C(Nc1nc(-c2nc3ccccc3s2)cs1)c1coc2ccccc2c1=O` it was 1160 s.
In the case of `Cc1nn(C(C)C)c(C)c1S(=O)(=O)N1CCN(C(=O)c2ccsc2)CC1`, the RP-LC retention time was determined as 775 s.
Regarding `CNC(=O)C1CCCN(c2nc3ncn(CC(=O)Nc4ccccc4Cl)c(=O)c3s2)C1` (centres undefined), the RP-LC retention time was 654 s.
Consider `O=C(Cn1nc(N2CCOCC2)c2ccccc2c1=O)Nc1ccc(C(F)(F)F)cc1`, for which the RP-LC retention time came out at 898 s.
`CCN1CCN(CCNC(=O)C2CCCN(S(=O)(=O)c3ccc4c(ccn4CC)c3)C2)CC1` (centres undefined) returned an RP-LC retention time of 626 s.
Take `CC(C)(C)n1c(=O)c2ccc(F)cc2n1CC(=O)N1CCN(c2ccccc2)CC1`: the RP-LC retention time came to 1180 s.
Turning to `O=S(=O)(c1ccc2c(c1)-c1oncc1CO2)N1CCN(c2ccccn2)CC1`, the RP-LC retention time is 647 s.
In turn, `O=C(Cn1c(C(F)(F)F)nc2cc3c(cc21)OCCO3)NCc1ccc(Cl)cc1` had an RP-LC retention time of 885 s.
As to `O=C(c1cc(F)cc(F)c1)N1CCN(c2cc(-c3ccc(F)cc3)[nH]n2)CC1`, the RP-LC retention time worked out at 837 s.
For the compound `CCOC(=O)C1CCCN(C(=O)C2CCc3nc(N(CC)CC)ncc3C2)C1` (centres undefined), the RP-LC retention time worked out at 620 s.
In the case of `O=C(COc1ccccc1F)NCC1CCN(Cc2cccs2)CC1` it was 560 s; in that of `O=C(CC(c1ccccc1)c1ccccc1)N1CC(c2nc(-c3ccccc3)no2)C1`, 1020 s.
The figure for `CCCN(CC1CCOC1)C(=O)Nc1ccc(C)c(F)c1` (centres undefined) is 857 s.
The figure for `COc1ccc(-c2noc(-c3ccc(N4CCN(c5ccc(OC)cc5)CC4)nc3)n2)cc1` is 1240 s; for `Cc1nn(CCCC(=O)N2CCN(c3ccccn3)CC2)c(=O)c2cc3occc3n12` it is 589 s; for `Cc1oc(-c2ccc(C(=O)N3CCCCC3)cc2)nc1CS(=O)(=O)c1ccccc1` it is 843 s.
Compound `O=C(NCc1ccc2[nH]c3c(c2c1)CCCC3)C1CC1` came in with an RP-LC retention time of 735 s.
In the case of `O=C(NCc1ccccc1)C1CN(S(=O)(=O)c2cccnc2)CC12CCCCC2` (centres undefined) it was 864 s; in that of `Cc1ccc2nc(N3CCN(c4ccccc4F)CC3)c(-c3noc(C)n3)cc2c1`, 730 s.
In the case of `CC1CCc2c(sc3ncn4c(=O)n(CC(=O)N5CCc6ccccc6C5)nc4c23)C1` (centres undefined) it was 1070 s; in that of `CCn1cc(-c2nc(CC(=O)Nc3ccccc3)cs2)c2cccnc21`, 892 s.
The figure for `O=c1ccc(-c2ccccc2)nn1CCc1nc(-c2ccc(F)cc2)no1` is 970 s; for `c1ccc2c(c1)OCC(c1nc(-c3ccc(-n4cccn4)nc3)no1)O2` (centres undefined) it is 1090 s.
`CN(C)c1ccc(C(=O)N2CCC(COc3ccc(C(=O)N4CCCCC4)cc3)CC2)cc1` returned an RP-LC retention time of 929 s.
The figure for `O=C1CCCc2cc(S(=O)(=O)N3CCN(c4ccccn4)CC3)ccc2N1` is 589 s; for `Cc1sc(-c2cc(C(F)(F)F)on2)cc1S(=O)(=O)N1CCN(C2CCCCC2)CC1` it is 857 s; for `CC(=O)c1ccc(NC(=O)c2cnc(-c3ccc(C(F)(F)F)cc3)nc2C)cc1` it is 1030 s.
The figure for `COc1ccc(OC)c(NC(=O)C2CCCN(c3cnc4nccnc4c3)C2)c1` (centres undefined) is 730 s; for `O=C(Cn1cc(-c2ccccc2)c2ncnc(N3CCOCC3)c21)N1CCCCC1` it is 700 s; for `CN[C@H]1CN(c2ccc3c(=O)c(C(=O)O)cn(-c4nccs4)c3n2)C[C@@H]1OC` it is 599 s.
For `O=C(NC1CCCC1)c1ccc2ccnc(N3CCN(c4ccccc4)CC3)c2c1`, the RP-LC retention time turned out to be 776 s.
The figure for `O=C(Nc1cccc(F)c1)C1CCCN(c2ccc3cc(S(=O)(=O)N4CCCCC4)ccc3n2)C1` (centres undefined) is 908 s.
For the compound `CCc1ccc(C(C)NC(=O)C2CCN(c3nnc(-c4ccc(OC)cc4)o3)CC2)cc1` (centres undefined), the RP-LC retention time stood at 943 s.
As to `CCN1CCC2(CC1)OC(=O)C(C)=C2C(=O)NCc1ccc(Cl)cc1`, the RP-LC retention time came to 643 s.
The figure for `COc1ccc(OC)c(CNC(=O)c2[nH]c3cc(C)sc3c2CN(C)C)c1` is 676 s.
The figure for `CC1=C(C(=O)OC(C)C)C(c2cc3c(cc2Br)OCO3)NC(=O)N1` (centres undefined) is 748 s; for `CCn1c(=O)c(N2CCC(NC(=O)Nc3ccccc3Cl)CC2)nc2ccccc21` it is 1010 s; for `Cc1ccc(NC(=O)N2CCC3(CC2)NC(=O)c2cc(Cl)ccc2N3C)cc1C` it is 904 s.
In the case of `CCCCN1CCN(C(=O)CN2CCN(Cc3ccccc3)C2=O)CC1` it was 589 s.
As to `Cc1cc(N2CCCC2)n2nc(CN3CCN(c4ccccc4Cl)CC3)nc2n1`, the RP-LC retention time stood at 662 s.
As to `CS(=O)(=O)N1CCN(CCNC(=O)NCc2cccc3ccccc23)CC1`, the RP-LC retention time was 570 s.
In the case of `O=C(Cn1nc2n(c1=O)CCCC2)Nc1ccc2c(c1)OCO2` it was 638 s.
`Cn1cc(-c2ccc(F)cc2)cc1C(=O)NCCN1CCCCC1` registered an RP-LC retention time of 672 s.
The figure for `CCc1ccc2c(-c3cccc(Cl)c3)nc(=O)n(CC)c2n1` is 1120 s; for `O=C(Cn1c(=O)c2cc(C3CC3)nn2c2ncccc21)NCc1ccccc1Cl` it is 766 s; for `COc1ccc(CCNC(=O)Cc2csc3nc(-c4ccc(OC)c(OC)c4)cn23)cc1OC` it is 661 s.
The figure for `CCOc1ccc(CC(=O)Nc2cc3c(cc2N(C)C)n(C)c(=O)c(=O)n3C)cc1OCC` is 763 s; for `CCCN(CC1CCOC1)C(=O)Nc1ccc(OCC)cc1` (centres undefined) it is 750 s.

For the origin of these results see the METLIN SMRT retention time set (Domingo-Almenara et al. 2019).
